Where two headings read alike, the source gives them in different places.
What was measured:
Raji = test: Cell proliferation assay Raji (Example 6); assay type: cell-based; conditions: cells counted on the sixth day
Description: In-vitro assays were performed to assess the cytotoxic impact of AA analogues on breast cancer cell lines (MB-468, MB-453, and T47D), lymphoma cell lines (Raji and OCI-LY10), and glioblastoma multiforme cell line (U87). The three breast cancer cell lines represent three subtypes of breast cancer: triple-negative (MB-468), Her2-positive (MB-453), and hormone receptor positive (T47D).
The IC50 values obtained for each compound represents the concentration of the tested compound that is needed to decrease the cancer cell count by 50%. Cancer cells were seeded in triplicate at 50,000 cells per well of a 24-well plate in 0.5 ml medium. […] Cells were harvested and counted on the sixth day using a Beckman Coulter counter.

[1] = tested on: DU145 prostate cancer cells; test: Cytotoxicity, MTT method, DU145; conditions: read-out: Cytotoxicity (IC50, μM) DU145
Description: The cell suspension in the culture medium was plated into each well of 96-well plates (10,000 cells/well/100 μL). After 24 h, testing compounds were added, and then the plates were incubated for an additional 24 h in a humidified atmosphere of 5% CO2 at 37° C. […] The IC50 value was determined by linear interpolation from the growth inhibition curve.

[2] = CNS pharmacokinetic analysis in rats (microdialysis, CE-UV); conditions: male, Sprague-Dawley, rat, in vivo, iv, 2.5 mg/kg
Description: Male Sprague-Dawley rats (Harlan, Indianapolis, Ind., USA) were used in this CNS pharmacokinetic study on Agelastatin A and its three analogues (CAA, CEAA, and DCEAA). Six rats were used for each drug. The rats were approximately 2 months old and weighed 300±25 g at the beginning of the study. All rats were housed in a temperature-controlled room (23±2° C.) with a 12:12 light dark cycle (lights off at 6:00 pm). Purina 5001 Rodent Chow and tap water were available ad libitum at all times.
Rats were anesthetized with gasiform isoflurane (1% isoflurane in a mixture of 20% oxygen and 80% nitrogen gas) and immobilized in a stereotaxic frame (KOPF Instruments, Tujunga, Calif.). Anesthesia was maintained during the entire procedure. The guide cannula (CMA Microdialysis Inc., Acton, Mass.) was stereotactically implanted into the lateral ventricle (AP −0.9, L 1.6, V 3.4, relative to bregma and skull), and then secured to the skull by screws and dental cement. Following surgery, each rat was housed individually with food and water ad libitum for 3 days for recovery from cannulation surgery. Microdialysis experiments were carried out on conscious, freely moving rats. On the day of the experiment, the stylet in the guide cannula was replaced with the microdialysis probe (CMA/11 with 4 mm membrane, CMA Microdialysis Inc., Acton, Mass.) and a vascular microdialysis probe (CMA/20 with 4 mm membrane, CMA Microdialysis Inc, Acton, Mass.)) was implanted into a jugular vein. The probes had inlet tubes connected to syringes to deliver artificial cerebrospinal fluid (146 mM NaCl, 1.2 mM CaCl2, 3 mM KCl, 1 mM MgCl2, 1.9 mM Na2HPO4, 0.1 mM NaH2PO4, pH 7.4) into the ventricle and Dulbecco's phosphate-buffered saline (D-PBS) into the blood at 0.5 μl/min flow rate. […]
The drug concentration in the microdialysate was measured by CE-UV (Agilent 3D CE). […] The absorbance from the drug was detected with UV at 280 nm. […]
Two-way repeated measures ANOVA followed by Tukey's test was used. […] CNS penetration is determined as the ratio of CSF and blood area under the curve (AUC).

| Compound | IC50 (Raji; Homo sapiens, Raji) [µM] | IC50 ([1]; Homo sapiens, DU-145, 24 h) [µM] | Kp [2] | IC50 (Raji) [µM] | IC50 ([1]; MTT, 24 h incubation) [µM] |
| --- | --- | --- | --- | --- | --- |
| CN1C(=O)N[C@H]2[C@@H]3NC(=O)c4ccc(Cl)n4[C@@H]3C[C@]21O [CAA, chloroagelastatin A] | 0.181 | 1.2 | 0.16 |  |  |
| CCN1C(=O)N[C@H]2[C@@H]3NC(=O)c4ccc(Cl)n4[C@@H]3C[C@]21O [CEAA, chloroethylagelastatin A] | 0.296 | 2.6 | 0.27 |  |  |
| CN1C(=O)N[C@H]2[C@@H]3NC(=O)c4ccc(Br)n4[C@@H]3C[C@]21O [AA, agelastatin A, reference compound] |  |  |  | 0.137 | 2.3 |
| CCN1C(=O)N[C@H]2[C@@H]3NC(=O)c4cc(Cl)c(Cl)n4[C@@H]3C[C@]21O [DCEAA, dichloroethylagelastatin A] | 0.619 | 1.4 | 0.307 |  |  |
